# How the values were obtained:
# [1] = tadalafil as normally administered, typical value; cited from earlier work
# [2] = Plasma concentration of Tadalafil after a single dose (pharmacokinetics, FIG. 1); settings: male, human, in vivo, 20 mg
# Method: In both cases, a single dose of a pharmaceutical composition equivalent to 20 mg of tadalafil was administered to a test population of otherwise healthy subjects suffering from ED and the plasma concentration of Tadalafil was measured at intervals following the administration.
compound,measurement,setting,value
"CN1CC(=O)N2[C@H](c3ccc4c(c3)OCO4)c3[nH]c4ccccc4c3C[C@@H]2C1=O [Tadalafil, (6R,12aR)-6-(1,3-benzodioxol-5-yl)-2,3,6,7,12,12a-hexahydro-2-methylpyrazino[1′,2′:1,6]pyrido[3,4-b]indole-1,4-dione]",Half-life in the body,[1],17.5 h
same,half-life,[2],17.5 h
